Reference: US11591311B2, “3-oxo-6-heteroaryl-2-phenyl-2,3-dihydropyridazine-4-carboxamides” (priority 2017, dated 2023)

Assays:
AHR [1] = molecular target: T1, AHR (Homo sapiens, UniProt P35869); test: In vitro assay 1: AHR-luc transactivation assay, antagonism in human cell line (U87 glioblastoma cells prestimulated with kynurenic acid); assay type: cell-based
T1 construct: U87 glioblastoma cells (ATCC) endogenously expressing AHR; host or cells: U87 glioblastoma cells, stably transfected with DRE-firefly luciferase and renilla reporter constructs
T1 sequence (P35869 11-848): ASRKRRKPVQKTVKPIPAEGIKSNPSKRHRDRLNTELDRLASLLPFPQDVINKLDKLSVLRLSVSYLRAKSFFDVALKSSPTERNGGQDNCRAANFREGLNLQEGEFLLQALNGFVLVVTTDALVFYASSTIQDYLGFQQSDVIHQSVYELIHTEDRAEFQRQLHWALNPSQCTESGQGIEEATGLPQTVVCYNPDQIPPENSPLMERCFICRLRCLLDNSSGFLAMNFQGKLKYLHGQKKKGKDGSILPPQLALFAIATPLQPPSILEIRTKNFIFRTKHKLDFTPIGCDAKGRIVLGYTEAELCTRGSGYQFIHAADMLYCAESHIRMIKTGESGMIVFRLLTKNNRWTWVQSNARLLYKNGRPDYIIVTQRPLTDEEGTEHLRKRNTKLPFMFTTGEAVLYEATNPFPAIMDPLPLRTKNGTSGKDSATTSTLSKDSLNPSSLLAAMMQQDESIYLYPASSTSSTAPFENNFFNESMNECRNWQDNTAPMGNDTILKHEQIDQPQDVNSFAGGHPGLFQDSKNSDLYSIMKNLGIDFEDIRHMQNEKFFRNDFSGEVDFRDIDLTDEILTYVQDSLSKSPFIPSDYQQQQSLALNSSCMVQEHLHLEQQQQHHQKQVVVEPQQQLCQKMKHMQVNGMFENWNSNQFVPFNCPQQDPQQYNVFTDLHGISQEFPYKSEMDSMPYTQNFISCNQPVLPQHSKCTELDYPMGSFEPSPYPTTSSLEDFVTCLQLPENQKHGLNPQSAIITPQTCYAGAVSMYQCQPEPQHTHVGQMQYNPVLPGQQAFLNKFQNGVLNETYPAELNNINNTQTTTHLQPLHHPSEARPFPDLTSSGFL
Procedure: Transactivation Assay in Human Cell Line (In Vitro Assays 1 and 2)
Transactivation assays were carried out in U87 glioblastoma cells (ATCC) endogenously expressing AHR. In addition the cells were stably transfected with an AHR inducible firefly luciferase reporter gene construct that carried AHR-binding sites (DRE) in its promoter and a renilla reporter gene construct with constitutively active promoter. Kynurenic acid is an endogenous AHR activating ligand and was used to prestimulate test cells prior to testing the antagonistic properties of compounds.
In Vitro Assay 1: Antagonism in Human Cell Line
Cells in medium (tryptophan free RPMI, 1% FCS, 2 mM Glutamine) supplemented with 150 μM kynurenic acid were grown for 20 hours in absence (negative control) or presence of increasing concentrations of test compounds (typical dilutions: 72 pmol/L, 0.25 nmol/L, 0.89 nmol/L; 3.1 nmol/L, 11 nmol/L, 38 nmol/L, 130 nmol/L, 470 nmol/L, 1.6 μmol/L, 5.7 μmol/L and 20 μmol/L in duplicates). As positive inhibition control cells supplemented with 150 μM kynurenic acid were incubated in presence of 5 μM Staurosporin. Normalization was done by positive and negative controls.
Firefly luciferase and Renilla activity was determined by the DualGlo Luciferase Assay System (Promega, #2920). Renilla activity was used to assess toxic effects of compounds.

AHR [2] = molecular target: T1, AHR; test: In vitro assay 3: AHR-regulated CYP1A1 expression in human cell line (U937, qPCR); assay type: cell-based; details: human monocytic U937 cells, CYP1A1 expression induced with 200 μM KA, 6 hours, quantitative PCR; read-out: Assay 3: Hum CYP1A1 Antagonism IC50
Procedure: In Vitro Assay 3: AHR-Regulated CYP1A1 Expression in Human Cell Line
To assess the AHR inhibitory activity of the substances described in this application, the ability thereof to antagonise ligand-induced AHR gene regulation in a dose-dependent manner was quantified. For this purpose, quantitative PCR analysis was used to determine expression of the AHR-regulated gene CYP1A1 in a human monocytic U937 cell line upon stimulation with 200 μM KA in the presence and absence of AHR inhibitor. […] CYP1A1 expression was induced with 200 μM KA (positive control) in the presence or absence of the substances for 6 hours. Human U937 cells were typically incubated with eight different concentrations of the substances (1 nM, 3 nM, 10 nM, 30 nM, 100 nM, 300 nM, 1 μM and 3 μM) and analyzed in duplicate on the same microtitre plate. […] Unstimulated cells were used as the negative control. Taqman probes for human CYP1A1 (Hs01054797_g1) and human HPRT (Hs02800695_m1) were used to analyze fold expression of CYP1A1 of HPRT. Quantitation was performed on a Taqman SDS7900HT.

SMILES	IC50 (AHR [1]) [µM]	IC50 (AHR [2]) [µM]
C[C@@H](CO)NC(=O)c1cc(-c2ccc(C(F)(F)F)nc2)nn(-c2cc(F)cc(F)c2)c1=O [Example 1, 2-(3,5-Difluorophenyl)-N-[(25)-1-hydroxypropan-2-yl]-3-oxo-6-[6-(trifluoromethyl)pyridin-3-yl]-2,3-dihydropyridazine-4-carboxamide]	0.00714	0.00529
C[C@@H](CO)NC(=O)c1cc(-c2ccc(C(F)(F)F)nc2)nn(-c2cc(F)cc(Cl)c2)c1=O [Example 2, 2-(3-Chloro-5-fluorophenyl)-N-[(2S)-1-hydroxypropan-2-yl]-3-oxo-6-[6-(trifluoromethyl)pyridin-3-yl]-2,3-dihydropyridazine-4-carboxamide]	0.0235	0.0368
C[C@@H](CO)NC(=O)c1cc(-c2ccc(C(F)(F)F)nc2)nn(-c2cccc(Cl)c2)c1=O [Example 4, 2-(3-Chlorophenyl)-N-[(2S)-1-hydroxypropan-2-yl]-3-oxo-6-[6-(trifluoromethyl)pyridin-3-yl]-2,3-dihydropyridazine-4-carboxamide]	0.128	0.222
C[C@@H](CO)NC(=O)c1cc(-c2ccc(C(F)(F)F)nc2)nn(-c2ccccc2)c1=O [Example 5, N-[(2S)-1-Hydroxypropan-2-yl]-3-oxo-2-phenyl-6-[6-(trifluoromethyl)pyridin-3-yl]-2,3-dihydropyridazine-4-carboxamide]	0.163	0.281
O=C(N[C@H]1CCC[C@@H]1O)c1cc(-c2ccc(C(F)(F)F)nc2)nn(-c2cccc(F)c2)c1=O [Example 6, 2-(3-Fluorophenyl)-N-[(1S,2S)-2-hydroxycyclopentyl]-3-oxo-6-[6-(trifluoromethyl)pyridin-3-yl]-2,3-dihydropyridazine-4-carboxamide]	0.0134	0.00832
C[C@@H](NC(=O)c1cc(-c2ccc(C(F)(F)F)nc2)nn(-c2cccc(F)c2)c1=O)C(C)(C)O [Example 7, 2-(3-Fluorophenyl)-N-[(2R)-3-hydroxy-3-methylbutan-2-yl]-3-oxo-6-[6-(trifluoromethyl)pyridin-3-yl]-2,3-dihydropyridazine-4-carboxamide]	0.0258	0.0481
O=C(N[C@H]1CCC[C@H]1O)c1cc(-c2ccc(C(F)(F)F)nc2)nn(-c2cccc(F)c2)c1=O [Example 8, 2-(3-Fluorophenyl)-N-[(1S,2R)-2-hydroxycyclopentyl]-3-oxo-6-[6-(trifluoromethyl)pyridin-3-yl]-2,3-dihydropyridazine-4-carboxamide]	0.00628	0.0103
C[C@H](NC(=O)c1cc(-c2ccc(C(F)(F)F)nc2)nn(-c2cccc(F)c2)c1=O)C(C)(C)O [Example 9, 2-(3-Fluorophenyl)-N-[(2S)-3-hydroxy-3-methylbutan-2-yl]-3-oxo-6-[6-(trifluoromethyl)pyridin-3-yl]-2,3-dihydropyridazine-4-carboxamide]	0.0162	0.0253
CC(C)(O)CNC(=O)c1cc(-c2ccc(C(F)(F)F)nc2)nn(-c2cccc(F)c2)c1=O [Example 10, 2-(3-Fluorophenyl)-N-(2-hydroxy-2-methylpropyl)-3-oxo-6-[6-(trifluoromethyl)pyridin-3-yl]-2,3-dihydropyridazine-4-carboxamide]	0.0732	0.11
C[C@@H](CO)NC(=O)c1cc(-c2cnc(C(F)(F)F)nc2)nn(-c2cccc(F)c2)c1=O [Example 11, 2-(3-Fluorophenyl)-N-[(2S)-1-hydroxypropan-2-yl]-3-oxo-6-[2-(trifluoromethyl)pyrimidin-5-yl]-2,3-dihydropyridazine-4-carboxamide]	0.495	0.326
C[C@@H](CO)NC(=O)c1cc(-c2ccc(C(F)F)nc2)nn(-c2cccc(F)c2)c1=O [Example 13, 6-[6-(Difluoromethyl)pyridin-3-yl]-2-(3-fluorophenyl)-N-[(2S)-1-hydroxypropan-2-yl]-3-oxo-2,3-dihydropyridazine-4-carboxamide]	0.157	0.198
C[C@@H](CO)NC(=O)c1cc(-c2ccc(C(F)(F)F)nc2)nn(-c2cccc(F)c2)c1=O [Example 18, 2-(3-Fluorophenyl)-N-[(2S)-1-hydroxypropan-2-yl]-3-oxo-6-[6-(trifluoromethyl)pyridin-3-yl]-2,3-dihydropyridazine-4-carboxamide]	0.0338	0.0314
C[C@@H](NC(=O)c1cc(-c2ccc(N(C)C)nc2)nn(-c2cccc(F)c2)c1=O)C(C)(C)O [Example 19, 6-[6-(Dimethylamino)pyridin-3-yl]-2-(3-fluorophenyl)-N-[(2R)-3-hydroxy-3-methylbutan-2-yl]-3-oxo-2,3-dihydropyridazine-4-carboxamide]	0.0919	0.147
COc1ccc(-c2cc(C(=O)N[C@@H](C)CO)c(=O)n(-c3cccc(F)c3)n2)cn1 [Example 21, 2-(3-Fluorophenyl)-N-[(2S)-1-hydroxypropan-2-yl]-6-(6-methoxypyridin-3-yl)-3-oxo-2,3-dihydropyridazine-4-carboxamide]	0.128	0.44
C[C@@H](NC(=O)c1cc(-c2ccc(C(F)F)nc2)nn(-c2cccc(F)c2)c1=O)C(C)(C)O [Example 22, 6-[6-(Difluoromethyl)pyridin-3-yl]-2-(3-fluorophenyl)-N-[(2R)-3-hydroxy-3-methylbutan-2-yl]-3-oxo-2,3-dihydropyridazine-4-carboxamide]	0.0626	0.186
N#C[C@@H](CO)NC(=O)c1cc(-c2ccc(C(F)(F)F)nc2)nn(-c2cccc(F)c2)c1=O [Example 39, N-[(1S)-1-Cyano-2-hydroxyethyl]-2-(3-fluorophenyl)-3-oxo-6-[6-(trifluoromethyl)pyridin-3-yl]-2,3-dihydropyridazine-4-carboxamide]	0.0228	–
O=C(N[C@H]1COCC[C@H]1O)c1cc(-c2ccc(C(F)(F)F)nc2)nn(-c2cccc(F)c2)c1=O [Example 40, 1,5-anhydro-2,4-dideoxy-2-[({2-(3-fluorophenyl)-3-oxo-6-[6-(trifluoromethyl)pyridin-3-yl]-2,3-dihydropyridazin-4-yl}carbonyl)amino]-D-erythro-pentitol]	0.0328	–
C[C@@H](CO)NC(=O)c1cc(-c2ccc(C(F)(F)F)cn2)nn(-c2cc(F)cc(F)c2)c1=O [Example 41, 2-(3,5-Difluorophenyl)-N-[(2S)-1-hydroxypropan-2-yl]-3-oxo-6-[5-(trifluoromethyl)pyridin-2-yl]-2,3-dihydropyridazine-4-carboxamide]	0.0965	–
C[C@@H](CO)NC(=O)c1cc(-c2ccc(C(F)(F)F)cn2)nn(-c2ccccc2)c1=O [Example 42, N-[(2S)-1-Hydroxypropan-2-yl]-3-oxo-2-phenyl-6-[5-(trifluoromethyl)pyridin-2-yl]-2,3-dihydropyridazine-4-carboxamide]	0.386	–
C[C@@H](CO)NC(=O)c1cc(-c2ccc(C(F)(F)F)cn2)nn(-c2ccc(F)c(F)c2)c1=O [Example 43, 2-(3,4-Difluorophenyl)-N-[(2S)-1-hydroxypropan-2-yl]-3-oxo-6-[5-(trifluoromethyl)pyridin-2-yl]-2,3-dihydropyridazine-4-carboxamide]	0.902	–
